One may read the EC50 as the concentration giving half of the maximal effect.

This note sets out measurements from patent US9840513B2 (AbbVie S.à.r.l., priority 2015, dated 2017).

Test [1] deals with T1, F508delCFTR in primary hBE cells with F508del/F508del CFTR mutation (Homo sapiens, UniProt P13569, DEL508-508).
T1 construct: cells isolated from CF patients with the homozygous mutation; endogenous in cells; host or cells: primary human bronchial epithelial (hBE) cells from F508del/F508del CF patients
Nature of the test: Transepithelial Clamp Circuit on Human Bronchial Epithelial Cells Conductance Assay (hBE-TECC). Format: cell-based. As to conditions: for EC50: primary hBE cells F508del/F508del, 18-24 hours at 37° C., equivalent short circuit current, 6 concentrations; for Maximum % activity (%): relative to positive control (3 μM) coupled with control potentiator. An outline of the steps:
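Primary F508del/F508del hBE cells grown 35 days at air-liquid interface, treated basolaterally with correctors 18-24 h at 37° C. Ieq (Vt/Rt) at 36.5° C, pH 7.4, after benzamil, forskolin 10 μM, control potentiator, bumetanide; 6 concentrations normalized to DMSO and 3 μM positive-control corrector, EC50 by 4-parameter fit.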

In test [2] the target is T2, F508delCFTR cell surface expression in CFBE41o-F508delCFTR-HRP cells (Homo sapiens, UniProt P13569, DEL508-508).
T2 construct: fused on or other part: Horseradish peroxidase (HRP) reporter inserted in the fourth exofacial (extracellular) loop of CFTR; expression is doxycycline-inducible
Put plainly: Cell Surface Expression-Horse Radish Peroxidase (CSE-HRP) Assay. It counts as cell-based. As to conditions: for EC50: CFBE41o-F508delCFTR-HRP cells, 18-24 hours at 33° C., 8-point curve, highest concentration 20 μM; for Maximum % activity (%): maximum at any tested concentration, normalized to on-plate positive control (3 μM). An outline of the steps:
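Correctors incubated 18-24 h at 33 °C on doxycycline-induced (0.5 μg/mL, 72 h) CFBE41o-F508delCFTR-HRP cells, 3-fold series from 20 μM. After DPBS washes, luminol luminescence read; activity expressed relative to DMSO and a 3 μM positive control, EC50 fitted from triplicate plates.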

The structures appear in SMILES notation.

T1 sequence (P13569 with tags, fused parts or gaps DEL508-508): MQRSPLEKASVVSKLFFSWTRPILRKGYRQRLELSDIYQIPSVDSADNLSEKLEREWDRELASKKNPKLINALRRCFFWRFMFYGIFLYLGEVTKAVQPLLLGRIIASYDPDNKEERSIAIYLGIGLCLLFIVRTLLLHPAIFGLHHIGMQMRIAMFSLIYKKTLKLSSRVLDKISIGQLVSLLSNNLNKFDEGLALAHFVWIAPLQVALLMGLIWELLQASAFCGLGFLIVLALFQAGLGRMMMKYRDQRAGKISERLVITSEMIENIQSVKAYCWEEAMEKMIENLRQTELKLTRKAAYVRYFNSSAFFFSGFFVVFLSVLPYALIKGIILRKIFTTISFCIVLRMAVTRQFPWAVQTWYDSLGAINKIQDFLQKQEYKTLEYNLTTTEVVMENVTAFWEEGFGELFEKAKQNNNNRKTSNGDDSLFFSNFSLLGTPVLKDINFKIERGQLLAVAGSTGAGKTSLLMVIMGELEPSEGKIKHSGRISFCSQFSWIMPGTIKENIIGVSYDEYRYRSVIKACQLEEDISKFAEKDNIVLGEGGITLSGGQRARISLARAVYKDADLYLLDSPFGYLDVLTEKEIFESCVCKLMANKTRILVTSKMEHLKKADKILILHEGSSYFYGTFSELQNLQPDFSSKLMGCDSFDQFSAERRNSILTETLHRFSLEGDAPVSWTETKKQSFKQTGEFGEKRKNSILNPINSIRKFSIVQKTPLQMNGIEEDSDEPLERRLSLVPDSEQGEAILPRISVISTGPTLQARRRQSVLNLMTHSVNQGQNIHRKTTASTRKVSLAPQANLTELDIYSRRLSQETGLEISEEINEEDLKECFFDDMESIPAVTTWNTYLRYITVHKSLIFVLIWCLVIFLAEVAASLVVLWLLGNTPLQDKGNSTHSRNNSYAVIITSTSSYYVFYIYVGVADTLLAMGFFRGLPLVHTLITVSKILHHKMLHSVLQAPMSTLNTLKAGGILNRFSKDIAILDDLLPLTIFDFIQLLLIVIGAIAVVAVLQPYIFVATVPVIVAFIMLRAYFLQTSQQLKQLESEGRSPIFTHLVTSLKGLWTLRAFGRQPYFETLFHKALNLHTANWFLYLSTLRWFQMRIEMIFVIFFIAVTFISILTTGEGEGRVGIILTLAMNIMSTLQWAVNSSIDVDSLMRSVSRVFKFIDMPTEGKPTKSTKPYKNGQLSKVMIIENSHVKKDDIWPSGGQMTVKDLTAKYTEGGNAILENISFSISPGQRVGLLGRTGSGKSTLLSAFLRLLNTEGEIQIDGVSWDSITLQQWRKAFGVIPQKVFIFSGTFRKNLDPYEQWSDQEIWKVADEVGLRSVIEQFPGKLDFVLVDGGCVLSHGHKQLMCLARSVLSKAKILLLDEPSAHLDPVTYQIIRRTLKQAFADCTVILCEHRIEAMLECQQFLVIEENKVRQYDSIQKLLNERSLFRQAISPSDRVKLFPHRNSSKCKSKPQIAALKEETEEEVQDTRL
T2 sequence (P13569 with tags, fused parts or gaps DEL508-508 limits assumed): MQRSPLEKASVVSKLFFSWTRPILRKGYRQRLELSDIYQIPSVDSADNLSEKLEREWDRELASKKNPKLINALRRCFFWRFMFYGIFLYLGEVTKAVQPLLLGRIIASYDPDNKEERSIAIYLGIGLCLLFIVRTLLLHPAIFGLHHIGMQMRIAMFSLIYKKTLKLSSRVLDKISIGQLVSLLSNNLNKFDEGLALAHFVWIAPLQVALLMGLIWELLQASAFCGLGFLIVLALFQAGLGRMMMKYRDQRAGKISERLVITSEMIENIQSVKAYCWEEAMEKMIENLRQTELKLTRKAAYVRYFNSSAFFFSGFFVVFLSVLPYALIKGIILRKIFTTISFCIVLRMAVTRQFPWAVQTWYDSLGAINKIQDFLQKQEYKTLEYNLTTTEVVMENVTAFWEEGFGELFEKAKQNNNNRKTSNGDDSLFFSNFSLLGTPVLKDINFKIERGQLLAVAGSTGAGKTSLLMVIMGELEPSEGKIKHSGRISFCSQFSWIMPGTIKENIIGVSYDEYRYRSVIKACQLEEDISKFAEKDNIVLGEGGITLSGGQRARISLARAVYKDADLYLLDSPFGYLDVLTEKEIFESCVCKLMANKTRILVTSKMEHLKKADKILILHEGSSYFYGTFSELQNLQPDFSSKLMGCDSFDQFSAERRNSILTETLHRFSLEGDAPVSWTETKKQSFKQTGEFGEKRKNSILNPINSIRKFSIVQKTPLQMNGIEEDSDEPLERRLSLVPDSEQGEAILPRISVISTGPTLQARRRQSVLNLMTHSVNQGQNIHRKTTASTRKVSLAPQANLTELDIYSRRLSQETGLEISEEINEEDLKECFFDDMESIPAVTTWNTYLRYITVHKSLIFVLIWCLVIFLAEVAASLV
T2 sequence (P13569 919-1480 limits assumed, stated change not applied): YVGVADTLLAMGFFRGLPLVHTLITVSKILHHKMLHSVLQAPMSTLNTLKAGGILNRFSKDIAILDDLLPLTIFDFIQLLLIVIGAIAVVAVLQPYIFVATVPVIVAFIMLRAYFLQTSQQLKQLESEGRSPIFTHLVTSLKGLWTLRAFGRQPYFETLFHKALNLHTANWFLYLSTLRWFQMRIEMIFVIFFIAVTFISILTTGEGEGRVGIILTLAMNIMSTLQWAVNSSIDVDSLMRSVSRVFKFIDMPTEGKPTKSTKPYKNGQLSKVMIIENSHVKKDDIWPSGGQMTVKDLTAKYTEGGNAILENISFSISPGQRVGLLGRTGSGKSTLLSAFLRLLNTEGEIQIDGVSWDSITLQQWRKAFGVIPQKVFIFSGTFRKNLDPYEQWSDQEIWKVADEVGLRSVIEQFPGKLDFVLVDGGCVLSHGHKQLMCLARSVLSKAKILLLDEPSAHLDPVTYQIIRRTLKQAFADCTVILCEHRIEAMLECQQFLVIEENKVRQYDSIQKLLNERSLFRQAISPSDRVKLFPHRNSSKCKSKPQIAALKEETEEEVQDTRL

`COc1ccc2c(c1)O[C@@H](c1ccc(C(=O)O)nc1)C[C@H]2NC(=O)[C@@]1(C)COc2cc3c(cc21)OC(F)(F)O3` [Example 146, 5-[(2R,4R)-4-{[(7R)-2,2-difluoro-7-methyl-6,7-dihydro-2H-furo[2,3-f][1,3]benzodioxole-7-carbonyl]amino}-7-methoxy-3,4-dihydro-2H-1-benzopyran-2-yl]pyridine-2-carboxylic acid]: the EC50 in test [1] stood at 160 nM; in test [2] it was 335 nM. The “Maximum % activity (%)” value in test [1] was 89%; in test [2], 153%.

On to `C[C@]1(C(=O)N[C@H]2C[C@@H]([C@H]3CC[C@H](C(=O)O)CC3)Oc3cc(OC(F)(F)F)ccc32)COc2cc3c(cc21)OC(F)(F)O3` [Example 149, trans-4-[(2S,4S)-4-{[(7R)-2,2-difluoro-7-methyl-6,7-dihydro-2H-furo[2,3-f][1,3]benzodioxole-7-carbonyl]amino}-7-(trifluoromethoxy)-3,4-dihydro-2H-1-benzopyran-2-yl]cyclohexane-1-carboxylic acid], for which, in test [1], the EC50 is 830 nM and the “Maximum % activity (%)” value came out at 24%. In addition, in test [2], a half-maximal effect (EC50) was put at 2200 nM and the “Maximum % activity (%)” value was 44%.

On to `C[C@]1(C(=O)N[C@@H]2C[C@H]([C@H]3CC[C@H](C(=O)O)CC3)Oc3cc(OC(F)(F)F)ccc32)COc2cc3c(cc21)OC(F)(F)O3` [Example 150, trans-4-[(2R,4R)-4-{[(7R)-2,2-difluoro-7-methyl-6,7-dihydro-2H-furo[2,3-f][1,3]benzodioxole-7-carbonyl]amino}-7-(trifluoromethoxy)-3,4-dihydro-2H-1-benzopyran-2-yl]cyclohexane-1-carboxylic acid], for which, in test [1], the concentration for a half-maximal effect (EC50) is 10 nM and the “Maximum % activity (%)” value came to 94%. In test [2], the EC50 was 26 nM and the “Maximum % activity (%)” value is given as 145%.

Turning to `C[C@]1(C(=O)N[C@@H]2C[C@H](c3ccc(C(=O)O)cn3)Oc3cc(OC(F)F)ccc32)COc2cc3c(cc21)OC(F)(F)O3` [Example 151, 6-[(2R,4R)-7-(difluoromethoxy)-4-{[(7R)-2,2-difluoro-7-methyl-6,7-dihydro-2H-furo[2,3-f][1,3]benzodioxole-7-carbonyl]amino}-3,4-dihydro-2H-1-benzopyran-2-yl]pyridine-3-carboxylic acid], in test [1], the EC50 worked out at 7.6 nM and the “Maximum % activity (%)” value came out at 93%. Further, in test [2], the EC50 came out at 12 nM and the “Maximum % activity (%)” value was 132%.

As for `COc1ccc2c(c1)O[C@@H]([C@H]1CC[C@H](C(=O)O)CC1)C[C@H]2NC(=O)[C@@]1(C)COc2cc3c(cc21)OC(F)(F)O3` [Example 155, trans-4-[(2R,4R)-4-{[(7R)-2,2-difluoro-7-methyl-6,7-dihydro-2H-furo[2,3-f][1,3]benzodioxole-7-carbonyl]amino}-7-methoxy-3,4-dihydro-2H-1-benzopyran-2-yl]cyclohexane-1-carboxylic acid], the values for the half-maximal effective concentration (EC50) in test [1] and in test [2] were 20 nM and 92 nM, respectively. Also, the “Maximum % activity (%)” value in test [1] is 102%; in test [2], 137%.

As to `C[C@]1(C(=O)N[C@@H]2C[C@H]([C@H]3CC[C@H](C(=O)O)CC3)Oc3cc(OC(F)F)ccc32)COc2cc3c(cc21)OC(F)(F)O3` [Example 160, trans-4-[(2R,4R)-7-(difluoromethoxy)-4-{[(7R)-2,2-difluoro-7-methyl-6,7-dihydro-2H-furo[2,3-f][1,3]benzodioxole-7-carbonyl]amino}-3,4-dihydro-2H-1-benzopyran-2-yl]cyclohexane-1-carboxylic acid], in test [1], the EC50 came out at 5 nM and the “Maximum % activity (%)” value is 85%. Further, in test [2], the half-maximal effective concentration (EC50) was found to be 44 nM and the “Maximum % activity (%)” value was found to be 136%.

On to `C[C@]1(C(=O)N[C@@H]2C[C@H]([C@H]3CC[C@@H](C(=O)O)CC3)Oc3cc(OC(F)(F)F)ccc32)COc2cc3c(cc21)OC(F)(F)O3` [Example 162, cis-4-[(2R,4R)-4-{[(7R)-2,2-difluoro-7-methyl-6,7-dihydro-2H-furo[2,3-f][1,3]benzodioxole-7-carbonyl]amino}-7-(trifluoromethoxy)-3,4-dihydro-2H-1-benzopyran-2-yl]cyclohexane-1-carboxylic acid], for which the values for the EC50 in test [1] and in test [2] were 20 nM and 712 nM, respectively. Besides, the “Maximum % activity (%)” value in test [1] stood at 86%; in test [2] it was 120%.

`C[C@]1(C(=O)N[C@@H]2C[C@H](C3(C(=O)O)CC3)Oc3cc(OC(F)(F)F)ccc32)COc2cc3c(cc21)OC(F)(F)O3` [Example 166, 1-[(2R,4R)-4-{[(7R)-2,2-difluoro-7-methyl-6,7-dihydro-2H-furo[2,3-f][1,3]benzodioxole-7-carbonyl]amino}-7-(trifluoromethoxy)-3,4-dihydro-2H-1-benzopyran-2-yl]cyclopropane-1-carboxylic acid]: in test [1], the EC50 is 11 nM and the “Maximum % activity (%)” value amounted to 84%. For the same molecule, in test [2], it took 30 nM to reach a half-maximal effect (EC50) and the “Maximum % activity (%)” value was 129%.

For the molecule `C[C@]1(C(=O)N[C@@H]2C[C@H]([C@H]3CC[C@H](C(=O)O)CC3)Oc3cc(OC(F)(F)F)ccc32)CCc2cc3c(cc21)OC(F)(F)O3` [Example 167, trans-4-[(2R,4R)-4-{[(5S)-2,2-difluoro-5-methyl-6,7-dihydro-2H,5H-indeno[5,6-d][1,3]dioxole-5-carbonyl]amino}-7-(trifluoromethoxy)-3,4-dihydro-2H-1-benzopyran-2-yl]cyclohexane-1-carboxylic acid], the EC50 was 87 nM in test [1] and 53 nM in test [2]. The results for the “Maximum % activity (%)” value in test [1] and in test [2] were 112% and 135%, respectively.

As for `COc1ccc2c(c1)O[C@@H]([C@H]1CC[C@H](C(=O)O)CC1)C[C@H]2NC(=O)[C@@]1(C)CCc2cc3c(cc21)OC(F)(F)O3` [Example 168, trans-4-[(2R,4R)-4-{[(5S)-2,2-difluoro-5-methyl-6,7-dihydro-2H,5H-indeno[5,6-d][1,3]dioxole-5-carbonyl]amino}-7-methoxy-3,4-dihydro-2H-1-benzopyran-2-yl]cyclohexane-1-carboxylic acid], in test [1], the concentration giving a half-maximal response (EC50) turned out to be 43 nM and the “Maximum % activity (%)” value turned out to be 101%. Moreover, in test [2], the midpoint of the response, the EC50, lay at 161 nM and the “Maximum % activity (%)” value is given as 127%.

For the molecule `CC1(c2cc3cc(NC(=O)[C@@]4(C)COc5cc6c(cc54)OC(F)(F)O6)c(F)cc3n2C[C@@H](O)CO)COC1` [Example 171, (7R)—N-{1-[(2R)-2,3-dihydroxypropyl]-6-fluoro-2-(3-methyloxetan-3-yl)-1H-indol-5-yl}-2,2-difluoro-7-methyl-6,7-dihydro-2H-furo[2,3-f][1,3]benzodioxole-7-carboxamide], the half-maximal effective concentration (EC50) in test [1] is 352 nM; in test [2], 660 nM. The figures for the “Maximum % activity (%)” value in test [1] and in test [2] were 45% and 92%, respectively.

As for `C[C@]1(C(=O)Nc2cc3cc(C4(CO)CCC4)[nH]c3cc2F)COc2cc3c(cc21)OC(F)(F)O3` [Example 172, (7R)-2,2-difluoro-N-{6-fluoro-2-[1-(hydroxymethyl)cyclobutyl]-1H-indol-5-yl}-7-methyl-6,7-dihydro-2H-furo[2,3-f][1,3]benzodioxole-7-carboxamide], in test [1], the EC50 amounted to 98 nM and the “Maximum % activity (%)” value stood at 50%. Further, in test [2], the 50% effective concentration (EC50) stood at 950 nM and the “Maximum % activity (%)” value worked out at 210%.
